Like-named read-outs stand apart in the source and are kept apart here.

Here are results for 31 compounds from US10988459B2 (priority 2015, dated 2021).

The assay has as its target human RIP1 kinase domain (2-375) (Homo sapiens (Human), UniProt Q13546). Nature of the assay: biochemical. It is filed as biochemical. The method in brief:
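Ki^app comes from Morrison tight-binding fits of fractional activity versus compound concentration. Activity was read as ADP production, via tracer displacement lowering fluorescence polarization (633 nm laser). Conditions: 2 h, 50 nM insect-cell-expressed enzyme, 50 uM ATP, 30 mM MgCl2, 1 mM DTT, 0.5% DMSO, pH 7.5 Hepes.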

[1] abbreviates: human RIP1 kinase domain (2-375), 50 uM ATP, 2 hours incubation, Transcreener ADP assay, read-out: RIP1 Ki.
Setting [2] is: human RIP1 kinase domain (2-375), Transcreener ADP assay, 50 uM ATP, 2 hours incubation, read-out: RIP1 Ki.
[3] abbreviates: tight-binding apparent inhibition constant, human RIP1 kinase domain (2-375) 50 nM, 50 uM ATP, 2 hours, read-out: Ki.
Where [4] appears, read: Table 5, apparent Ki (Morrison tight-binding fit), 50 nM RIP1 kinase domain, 50 uM ATP, 2 hours incubation, read-out: Ki.
The mark [5] stands for this setting: Table 1, apparent Ki (Morrison tight-binding fit), 50 nM RIP1 kinase domain, 50 uM ATP, 2 hours incubation, read-out: RIP1 Ki.

human RIP1 kinase domain (2-375), sequence (Q13546 2-375): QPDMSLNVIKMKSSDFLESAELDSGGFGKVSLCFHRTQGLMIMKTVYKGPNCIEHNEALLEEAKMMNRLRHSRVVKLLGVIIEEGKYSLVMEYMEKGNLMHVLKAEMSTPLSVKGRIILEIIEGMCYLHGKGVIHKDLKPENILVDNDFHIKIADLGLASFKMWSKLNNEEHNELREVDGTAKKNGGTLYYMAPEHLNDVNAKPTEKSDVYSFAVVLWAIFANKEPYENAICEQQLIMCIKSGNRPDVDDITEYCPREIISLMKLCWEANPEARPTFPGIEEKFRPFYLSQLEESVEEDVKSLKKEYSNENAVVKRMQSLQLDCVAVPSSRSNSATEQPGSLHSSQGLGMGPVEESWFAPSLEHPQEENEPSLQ

For `Cc1cc2n(n1)CC[C@H](NC(=O)c1ncn(Cc3ccc(F)cc3F)n1)C(=O)N2C` [Example 221, (S)-1-(2,4-difluorobenzyl)-N-(2,4-dimethyl-5-oxo-5,6,7,8-tetrahydro-4H-pyrazolo[1,5-a][1,3]diazepin-6-yl)-1H-1,2,4-triazole-3-carboxamide], the Ki under setting [1] was 37.7 nM.
As for `CN1C(=O)C(NC(=O)c2n[nH]c(Cc3ccccc3)n2)CCn2cncc21` (stereo not shown) [Example 293, 5-benzyl-N-(1-methyl-2-oxo-2,3,4,5-tetrahydro-1H-imidazo[1,5-a][1,3]diazepin-3-yl)-1H-1,2,4-triazole-3-carboxamide], under setting [2], the Ki was 72.8 nM.
Consider `CN1C(=O)[C@@H](NC(=O)c2n[nH]c3c2CC(C(C)(C)C)CC3)COc2ccccc21` (stereo partly drawn) [Example 3, 5-(tert-butyl)-N—((S)-5-methyl-4-oxo-2,3,4,5-tetrahydrobenzo[b][1,4]oxazepin-3-yl)-4,5,6,7-tetrahydro-1H-indazole-3-carboxamide], for which the Ki (read-out: RIP1 Ki) worked out at 68.8 nM.
Turning to `Cc1nn2c(c1C)N(C)C(=O)[C@@H](NC(=O)c1nnc(Cc3ccc(F)cc3)[nH]1)CC2` [Example 330, (S)-5-(4-fluorobenzyl)-N-(2,3,4-trimethyl-5-oxo-5,6,7,8-tetrahydro-4H-pyrazolo[1,5-a][1, 3]diazepin-6-yl)-4H-1,2,4-triazole-3-carboxamide], the Ki under setting [2] amounted to 103 nM.
Regarding `CN1C(=O)[C@@H](NC(=O)c2nc3n(n2)[C@H](c2ccccc2)CCC3)CCn2nccc21` (single isomer, unassigned) [Example 384], under setting [3], the Ki is 2100 nM.
With `CC[C@H]1CCCc2nc(C(=O)N[C@H]3COc4ccccc4N(C)C3=O)nn21` (racemic) [Example 403, (S)-5-ethyl-N—((S)-5-methyl-4-oxo-2,3,4,5-tetrahydrobenzo[b][1,4]oxazepin-3-yl)-5,6,7,8-tetrahydro-[1,2,4]triazolo[1,5-a]pyridine-2-carboxamide], under setting [3], the Ki amounted to 81.9 nM.
Regarding `CN1C(=O)[C@@H](NC(=O)c2n[nH]c3c2CC2(CCC2)OC3)COc2ccccc21` [Example 211, (S)—N-(5-methyl-4-oxo-2,3,4,5-tetrahydrobenzo[b][1,4]oxazepin-3-yl)-4′,7′-dihydro-1′H-spiro[cyclobutane-1,5′-pyrano[3,4-c]pyrazole]-3′-carboxamide], the Ki under setting [1] stood at 156 nM.
With `O=C(N[C@H]1COc2cc(F)cc(F)c2NC1=O)c1ncc2c(n1)C1(CCCC1)OC2` [Example 481, N-[(3S)-6,8-difluoro-4-oxo-3,5-dihydro-2H-1,5-benzoxazepin-3-yl]spiro[5H-furo[3,4-d]pyrimidine-7,1′-cyclopentane]-2-carboxamide], the Ki under setting [3] stood at 4.9 nM.
Consider `CN1C(=O)C(NC(=O)c2ncn(Cc3ccccc3)n2)CCn2nc(C(C)(F)F)cc21` (racemic) [Example 371, 1-benzyl-N-[2-(1,1-difluoroethyl)-4-methyl-5-oxo-7,8-dihydro-6H-pyrazolo[1,5-a][1,3]diazepin-6-yl]-1,2,4-triazole-3-carboxamide], for which, under setting [3], the Ki was determined as 100 nM.
For the compound `CN1C(=O)C(NC(=O)c2n[nH]c3c2C[C@@H](C(F)(F)F)CC3)CCn2nc3c(c21)CCCC3` (stereo partly drawn) [Example 137, (5S)—N-(1-methyl-2-oxo-2,3,4,5,8,9,10,11-octahydro-1H-[1,3]diazepino[1,2-b]indazol-3-yl)-5-(trifluoromethyl)-4,5,6,7-tetrahydro-1H-indazole-3-carboxamide], the Ki under setting [1] came out at 1800 nM.
`Cc1cc(F)c2c(c1)OC[C@H](NC(=O)c1nc3n(n1)[C@@H](C(C)C)CC3)C(=O)N2` (single isomer, unassigned) [Example 354]: under setting [3], the Ki is 4.5 nM.
Same read-out and setting: the value for `CN1C(=O)[C@@H](NC(=O)c2nc3n(n2)C(c2c(F)cccc2F)CCC3)CCn2nccc21` (stereo partly drawn) [Example 396, 5-(2,6-difluorophenyl)-N—((S)-4-methyl-5-oxo-5,6,7,8-tetrahydro-4H-pyrazolo[1,5-a][1,3]diazepin-6-yl)-5,6,7,8-tetrahydro-[1,2,4]triazolo[1,5-a]pyridine-2-carboxamide] was 152 nM.
On to `Cc1cc2n(n1)CC[C@H](NC(=O)c1ncn(CC3CCCCC3)n1)C(=O)N2C` [Example 163, (S)-1-(cyclohexylmethyl)-N-(2,4-dimethyl-5-oxo-5,6,7,8-tetrahydro-4H-pyrazolo[1,5-a][1,3]diazepin-6-yl)-1H-1,2,4-triazole-3-carboxamide], for which the Ki under setting [1] was determined as 22.3 nM.
As to `Cc1ncn2c1N(C)C(=O)C(NC(=O)c1cn(Cc3ccccc3)nn1)CC2` (stereo not shown) [Example 227, 1-benzyl-N-(1,9-dimethyl-2-oxo-2,3,4,5-tetrahydro-1H-imidazo[1,5-a][1,3]diazepin-3-yl)-1H-1,2,3-triazole-4-carboxamide], under setting [2], the Ki worked out at 419 nM.
`CN1C(=O)[C@@H](NC(=O)c2ncn(Cc3ccccn3)n2)CCn2nc(C3CC3)cc21` [Example 652]: the Ki under setting [3] turned out to be 190 nM.
With `CN1C(=O)C(NC(=O)c2cn(Cc3ccccc3)nn2)CCn2ccnc21` (stereo not shown) [Example 196, 1-benzyl-N-(9-methyl-8-oxo-6,7,8,9-tetrahydro-5H-imidazo[1,2-a][1,3]diazepin-7-yl)-1H-1,2,3-triazole-4-carboxamide], under setting [1], the Ki was 341 nM.
For `CN1C(=O)[C@@H](NC(=O)c2ncn(CC3CCCO3)n2)CCn2nc(C3CC3)cc21` (stereo partly shown) [Example 470], under setting [3], the Ki stood at 2400 nM.
The same measure, in the same setting: for `CN1C(=O)[C@@H](NC(=O)c2nc3n(n2)[C@@H](c2ccccc2F)CC3)CCn2nccc21` [Example 668, (5R)-5-(2-fluorophenyl)-N-[(6S)-4-methyl-5-oxo-7,8-dihydro-6H-pyrazolo[1,5-a][1,3]diazepin-6-yl]-6,7-dihydro-5H-pyrrolo[1,2-b][1,2,4]triazole-2-carboxamide] the value was 22 nM.
Turning to `CN1C(=O)C(NC(=O)c2ncn(Cc3ccccc3)n2)CCn2nc(-c3ccn(C)n3)cc21` (racemic) [Example 777, 1-benzyl-N-(4-methyl-2-(1-methyl-1H-pyrazol-3-yl)-5-oxo-5,6,7,8-tetrahydro-4H-pyrazolo[1,5-a][1,3]diazepin-6-yl)-1H-1,2,4-triazole-3-carboxamide], under setting [4], the Ki was found to be 70 nM.
For `CN1C(=O)[C@@H](NC(=O)c2n[nH]c3c2CCC3)COc2ccccc21` [Example 48, (S)-N-(5-methyl-4-oxo-2,3,4,5-tetrahydrobenzo[b][1,4]oxazepin-3-yl)-1,4,5,6-tetrahydrocyclopenta[c]pyra7.ole-3-carboxamide], the Ki under setting [5] came out at 8600 nM.
Still for that read-out and setting: for `CN1C(=O)[C@@H](NC(=O)c2ncc3n2CC(C(F)(F)F)CC3)COc2ccccc21` (stereo partly drawn) [Example 36, N—((S)-5-methyl-4-oxo-2,3,4,5-tetrahydrobenzo[b][1,4]oxazepin-3-yl)-6-(trifluoromethyl)-5,6,7,8-tetrahydroimidazo[1,5-a]pyridine-3-carboxamide] the value was 185 nM.
In the case of `CN1C(=O)[C@@H](NC(=O)c2nc3n(n2)[C@H](C(F)(F)F)CC3)COc2ccccc21` [Example 350, (5S)—N-[(3S)-5-methyl-4-oxo-2,3-dihydro-1,5-benzoxazepin-3-yl]-5-(trifluoromethyl)-6,7-dihydro-5H-pyrrolo[1,2-b][1,2,4]triazole-2-carboxamide], the Ki under setting [3] was 19.4 nM.
For the compound `CN1C(=O)[C@@H](NC(=O)c2ncc3c(n2)C2(CCCOC2)OC3)COc2ccccc21` (stereo partly drawn) [Example 511, N-[(3S)-5-methyl-4-oxo-2,3-dihydro-1,5-benzoxazepin-3-yl]spiro[5H-furo[3,4-d]pyrimidine-7,3′-tetrahydropyran]-2-carboxamide], the Ki under setting [3] amounted to 83 nM.
In the case of `CN1C(=O)C(NC(=O)c2ncn(Cc3ccccc3)n2)CCn2nc3c(c21)CCCC3` (stereo not shown) [Example 136, 1-benzyl-N-(1-methyl-2-oxo-2,3,4,5,8,9,10,11-octahydro-1H-[1,3]diazepino[1,2-b]indazol-3-yl)-1H-1,2,4-triazole-3-carboxamide], the Ki under setting [1] came to 110 nM.
As for `CN1C(=O)[C@@H](NC(=O)c2ncn(Cc3ccccc3)n2)CCn2nc(CO)cc21` (single isomer, unassigned) [Example 788], the Ki under setting [4] was 61 nM.
For the compound `CC1CCn2nnc(C(=O)N[C@H]3COc4ccccc4N(C)C3=O)c2C1` (stereo partly drawn) [Example 187, 5-methyl-N—((S)-5-methyl-4-oxo-2,3,4,5-tetrahydrobenzo[b][1,4]oxazepin-3-yl)-4,5,6,7-tetrahydro-[1,2,3]triazolo[1,5-a]pyridine-3-carboxamide], the Ki under setting [1] came to 210 nM.
For `CN1C(=O)[C@@H](NC(=O)c2nnc(Cc3ccccc3)[nH]2)CCn2nc(C3CC3)cc21` [Example 79, (S)-5-benzyl-N-(2-cyclopropyl-4-methyl-5-oxo-5,6,7,8-tetrahydro-4H-pyrazolo[1,5-a][1,3]diazepin-6-yl)-4H-1,2,4-triazole-3-carboxamide], the Ki under setting [5] turned out to be 34 nM.
`CCC[C@@H]1CCCc2nc(C(=O)N[C@H]3CCc4cc(F)cc(F)c4NC3=O)nn21` (single isomer, unassigned) [Example 437]: under setting [3], the Ki worked out at 8.43 nM.
Consider `Cc1cnc2n1CCC(NC(=O)c1ncn(Cc3ccccc3)n1)C(=O)N2C` (stereo not shown) [Example 546, 1-benzyl-N-(3,9-dimethyl-8-oxo-6,7-dihydro-5H-imidazo[1,2-a][1,3]diazepin-7-yl)-1,2,4-triazole-3-carboxamide], for which the Ki under setting [3] was 220 nM.
Turning to `CN1C(=O)[C@@H](NC(=O)c2ncn(Cc3ccccc3)n2)CCn2nc(C3CN(C(=O)OC(C)(C)C)C3)cc21` [Example 759], the Ki under setting [4] turned out to be 24 nM.
As to `CN1C(=O)[C@@H](NC(=O)c2ncn(Cc3ccc(Cl)cc3)n2)CCn2nc(C3CC3)cc21` (racemic) [Example 677, 1-[(4-chlorophenyl)methyl]-N-[rac-(6S)-2-cyclopropyl-4-methyl-5-oxo-7,8-dihydro-6H-pyrazolo[1,5-a][1,3]diazepin-6-yl]-1,2,4-triazole-3-carboxamide], the Ki under setting [3] is 7.58 nM.
